According to patent US12195588B2, “Polyether derivatives, uses, and methods of making the same” (P2 Science, Inc., priority 2017, dated 2025):
Where two headings read alike, the source gives them in different places.

Test system: female Yellow Fever mosquitos (Aedes aegypti)
Format: in vivo
Experimental: Mosquitos are exposed to the treatments applied to 3-cm diameter collagen membranes placed over warmed, blood-filled wells in a multi-well plate. The wells are pre-warmed to 96-100° F., and then citrated whole blood with ATP is poured into each well to completely fill. The membrane is applied and secured using vacuum grease. To each membrane 25 microliters of the test solution is applied, and the solution is allowed to dry. The plate is then placed into a plastic box enclosure having 250 adult female mosquitos. The number of instances of a mosquito probing the membrane is recorded during a 20-minute period. The entire procedure is repeated until five replicates are complete. Treatment positions in the plates are rotated between each replicate to eliminate any positional bias. Fresh blood and mosquitoes are used in each replicate. Percent repellency is calculated by comparison to a negative control membrane treated only with water.
This is compared to a solution of DEET in IPA at 20% by weight as a control. The procedure is as described for Example 8.

[1] = Example 8, 25 microliters on membrane, 20-minute period, five replicates, DEET as 20% isopropanol solution
[2] = Example 8, by comparison to water-treated membrane, DEET as 20% isopropanol solution
[3] = Example 10, 20% by weight in IPA

Compound	Mosquito Probes [1]	% Repellency [2] [%]	% Repellency [3] [%]	Mosquito Probes [3]
Citronellol dimer [Sample A]	0.4	99.1		
citronellol dimer acetate [Sample B]	0.6	98.8		
CCN(CC)C(=O)c1cccc(C)c1 [DEET, di-ethyl-meta-toluamide]	0	100	100	0
